Assay results: the supplement of paper PMC11208160

Experiment: recombinant barcode read abundance after kanamycin selection (control-corrected) (log10(CPM+1)); higher = more efficient recombination; sequences stand for … in AGTGCAGAGAAAATCGGCCAGTTTTCTCTGCCTGCAGTCCGCATGCCGT…AGATTTATGCAGCGGACTGCCTTTCTCCCAAAGTGATAAACCGGACAGTATCATGGACCGGTTTTCCCGGTAATCCGTATTTGCAAGGTTGGTTTCACT; site = the 11-nt target
Procedure, shortened: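 Recombination efficiency was calculated from barcode counts at recombinant junctions, normalized to counts per million, averaged and corrected by the control. Each value is given as log10(CPM+1). The constructs were Gibson-cloned oligos (promoter, target, barcode, J23119-driven first 104 bridge RNA bases) in a vector with the remaining 73 bp and a T7-inducible recombinase, co-electroporated into E. coli with a donor plasmid and plated in duplicate on chloramphenicol/ampicillin LB agar (control) or chloramphenicol/ampicillin/kanamycin with 0.1 mM IPTG.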
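Also: IS621 recombinase and bridge RNA in Escherichia coli cells.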

“AGTTGTCCTTGGGTTCTAACCTGTTGCAT (site AGTTGTCCTAT)” and “AGTTGTCCTTGGGTTCTAACCTGTTGCTT (site AGTTGTCCTAA)” are within 0.2 log units of each other in “recombinant barcode read abundance (log10)” value: 0.219 for the first, 0.126 for the second.

“AGTTGTCCTTGGGTTCTAACCTGTTGCTT (site AGTTGTCCTAC)” and “AGTTGTCCTTGGGTTCTAACCTGTTGCTT (site AGTTGTCCTAG)” are within 0.2 log units of each other in “recombinant barcode read abundance (log10)” value: 0.0653 for the first, 0.0387 for the second.

“AGTTGTCCTTGGGTTCTAACCTGTTGCTT (site AGTTGTCCTAT)” and “AGTTTCACTTGGGTTCTAACCTGTTGCCT (site AGTTACACTAG)” are within 0.2 log units of each other in “recombinant barcode read abundance (log10)” value: 0.0416 for the first, 0.11 for the second.

“AGTTTCACTTGGGTTCTAACCTGTTGCCT (site AGTTCCACTAG)” and “AGTTTCACTTGGGTTCTAACCTGTTGCCT (site AGTTGCACTAG)” are within 0.2 log units of each other in “recombinant barcode read abundance (log10)” value: 0.0621 for the first, 0.0233 for the second.

First: AGTTTCACTTGGGTTCTAACCTGTTGCCT (site AGTTTCACTAG)
Second: ATAAAGACTTGGGTTCTAACCTGTTGCCT (site ATAAAGACTAG)
The “recombinant barcode read abundance (log10)” value of the first is lower: 0.0755 for the first, 1.96 for the second.

“ATAAAGACTTGGGTTCTAACCTGTTGCCT (site ATCAAGACTAG)” and “ATAAAGACTTGGGTTCTAACCTGTTGCCT (site ATGAAGACTAG)” are within 0.2 log units of each other in “recombinant barcode read abundance (log10)” value: 0.181 for the first, 0.212 for the second.

Going from “ATAAAGACTTGGGTTCTAACCTGTTGCCT (site ATTAAGACTAG)” to “ATAAATGCTTGGGTTCTAACCTGTTGCCT (site ATAAATGCTAG)”, the “recombinant barcode read abundance (log10)” value rises from 0.586 to 1.34.

“ATAAATGCTTGGGTTCTAACCTGTTGCCT (site ATAAGGGCTAG)” and “ATAACAGCTTGGGTTCTAACCTGTTGCCT (site ATAAAAGCTAG)” are within 0.2 log units of each other in “recombinant barcode read abundance (log10)” value: 0.0428 for the first, 0.224 for the second.

Compared with “ATAACAGCTTGGGTTCTAACCTGTTGCCT (site ATAACAGCTAG)”, “ATAACAGCTTGGGTTCTAACCTGTTGCCT (site ATAAGAGCTAG)” is lower in “recombinant barcode read abundance (log10)” value: 1.43 for the first, 0.279 for the second.

Going from “ATAACAGCTTGGGTTCTAACCTGTTGCCT (site ATAATAGCTAG)” to “ATAACGGCTTGGGTTCTAACCTGTTGCCT (site ATAACGGCTAG)”, the “recombinant barcode read abundance (log10)” value rises from 0.0968 to 0.434.

First: ATAACGGCTTGGGTTCTAACCTGTTGCCT (site GACGGACCTTA)
Second: ATAAGTGCTTGGGTTCTAACCTGTTGCCA (site ATAAGTGCTTG)
The “recombinant barcode read abundance (log10)” value of the first is lower: 0.0648 for the first, 1.15 for the second.

First: ATAAGTGCTTGGGTTCTAACCTGTTGCCA (site GTGAGTGCTTG)
Second: ATAATAGCTTGGGTTCTAACCTGTTGCAT (site ATAATAGCTAT)
The “recombinant barcode read abundance (log10)” value of the first is lower: 0.0783 for the first, 2.02 for the second.

“ATAATAGCTTGGGTTCTAACCTGTTGCAT (site GTAATAGCTAT)” and “ATACGGACTTGGGTTCTAACCTGTTGCTA (site ATAAGGACTTA)” are within 0.2 log units of each other in “recombinant barcode read abundance (log10)” value: 0.0687 for the first, 0.0991 for the second.

Going from “ATACGGACTTGGGTTCTAACCTGTTGCTA (site ATACGGACTTA)” to “ATACGGACTTGGGTTCTAACCTGTTGCTA (site ATAGGGACTTA)”, the “recombinant barcode read abundance (log10)” value falls from 2.04 to 0.186.

“ATACGGACTTGGGTTCTAACCTGTTGCTA (site ATATGGACTTA)” and “ATACTCTCTTGGGTTCTAACCTGTTGCCT (site AGACTCTCTAG)” are within 0.2 log units of each other in “recombinant barcode read abundance (log10)” value: 0.0991 for the first, 0 for the second.

First: ATACTCTCTTGGGTTCTAACCTGTTGCCT (site ATACTCTCTAG)
Second: ATAGAGTCTTGGGTTCTAACCTGTTGCCG (site ATAGAGTCTCG)
The “recombinant barcode read abundance (log10)” value of the first is higher: 2.43 for the first, 1.95 for the second.

Compared with “ATAGAGTCTTGGGTTCTAACCTGTTGCCG (site GCTCCTCCTAT)”, “ATAGGTACTTGGGTTCTAACCTGTTGCTT (site ATAGGTACTAA)” is higher in “recombinant barcode read abundance (log10)” value: 0.173 for the first, 1.65 for the second.

Compared with “ATAGGTACTTGGGTTCTAACCTGTTGCTT (site CTAGGTACTAA)”, “ATAGGTCCTTGGGTTCTAACCTGTTGCTG (site ATAGGTCCTCA)” is higher in “recombinant barcode read abundance (log10)” value: 0.534 for the first, 2.91 for the second.

Going from “ATAGGTCCTTGGGTTCTAACCTGTTGCTG (site ATGGGTCCTCG)” to “ATATGAGCTTGGGTTCTAACCTGTTGCCA (site ATATGAGCTTG)”, the “recombinant barcode read abundance (log10)” value rises from 0.0247 to 0.884.

First: ATATGAGCTTGGGTTCTAACCTGTTGCCA (site TTATGAGCTCG)
Second: ATATGTACTTGGGTTCTAACCTGTTGCCG (site ATATGTACTCG)
The “recombinant barcode read abundance (log10)” value of the first is lower: 0.0938 for the first, 1.07 for the second.

“ATATGTACTTGGGTTCTAACCTGTTGCCG (site ATATGTACTTG)” and “ATATGTCCTTGGGTTCTAACCTGTTGCAG (site ATAGGACCTCT)” are within 0.2 log units of each other in “recombinant barcode read abundance (log10)” value: 0.167 for the first, 0 for the second.

First: ATATGTCCTTGGGTTCTAACCTGTTGCAG (site ATATGTCCTCT)
Second: ATATTATCTTGGGTTCTAACCTGTTGCCA (site ATATGATCTAG)
The “recombinant barcode read abundance (log10)” value of the first is higher: 1.88 for the first, 0.0788 for the second.

Compared with “ATATTATCTTGGGTTCTAACCTGTTGCCA (site ATATTATCTTG)”, “ATATTGTCTTGGGTTCTAACCTGTTGCCA (site ATATTGCCTAG)” is lower in “recombinant barcode read abundance (log10)” value: 0.29 for the first, 0.0374 for the second.

Going from “ATATTGTCTTGGGTTCTAACCTGTTGCCA (site ATATTGTCTTG)” to “ATCACTACTTGGGTTCTAACCTGTTGCCT (site ATCACTACTAG)”, the “recombinant barcode read abundance (log10)” value falls from 0.611 to 0.207.

Going from “ATCACTACTTGGGTTCTAACCTGTTGCCT (site CTTACTACTAG)” to “ATCCGCTCTTGGGTTCTAACCTGTTGCCT (site ATCCGCTCTAG)”, the “recombinant barcode read abundance (log10)” value rises from 0.0823 to 2.06.

Going from “ATCCGCTCTTGGGTTCTAACCTGTTGCCT (site CTCCGCTCTAG)” to “ATCCGCTCTTGGGTTCTAACCTGTTGCCT (site GTCCGCTCTAG)”, the “recombinant barcode read abundance (log10)” value falls from 1 to 0.0221.

Going from “ATCCGCTCTTGGGTTCTAACCTGTTGCCT (site TTCCGCTCTAG)” to “ATCCTACCTTGGGTTCTAACCTGTTGCTT (site ATCCTACCTAA)”, the “recombinant barcode read abundance (log10)” value rises from 0.771 to 1.72.

“ATCCTACCTTGGGTTCTAACCTGTTGCTT (site ATCGTACCTCA)” and “ATCGAGTCTTGGGTTCTAACCTGTTGCCA (site ATCGAGTCTTG)” are within 0.2 log units of each other in “recombinant barcode read abundance (log10)” value: 0.113 for the first, 0.276 for the second.

Going from “ATCGAGTCTTGGGTTCTAACCTGTTGCCA (site CAAATCCCTAC)” to “ATCGGAACTTGGGTTCTAACCTGTTGCCT (site ATCGGAACTAG)”, the “recombinant barcode read abundance (log10)” value rises from 0.112 to 1.01.

“ATCGGAACTTGGGTTCTAACCTGTTGCCT (site ATCGGACCTAG)” and “ATCGGAACTTGGGTTCTAACCTGTTGCCT (site ATCGGAGCTAG)” are within 0.2 log units of each other in “recombinant barcode read abundance (log10)” value: 0.0301 for the first, 0.13 for the second.

First: ATCGGAACTTGGGTTCTAACCTGTTGCCT (site ATCGGATCTAG)
Second: ATCGGACCTTGGGTTCTAACCTGTTGCTG (site ATCGGACCTCA)
The “recombinant barcode read abundance (log10)” value of the first is lower: 0.209 for the first, 0.901 for the second.

Going from “ATCGGACCTTGGGTTCTAACCTGTTGCTG (site TATAATGCTAC)” to “ATCGGAGCTTGGGTTCTAACCTGTTGCAG (site ATCGGAGCTCA)”, the “recombinant barcode read abundance (log10)” value rises from 0.148 to 0.504.

“ATCGGAGCTTGGGTTCTAACCTGTTGCAG (site ATCGGAGCTCC)” and “ATCGGAGCTTGGGTTCTAACCTGTTGCAG (site ATCGGAGCTCG)” are within 0.2 log units of each other in “recombinant barcode read abundance (log10)” value: 0.166 for the first, 0.294 for the second.

Going from “ATCGGAGCTTGGGTTCTAACCTGTTGCAG (site ATCGGAGCTCT)” to “ATCGGAGCTTGGGTTCTAACCTGTTGCCG (site ATCGGAGCTCA)”, the “recombinant barcode read abundance (log10)” value falls from 0.953 to 0.165.

First: ATCGGAGCTTGGGTTCTAACCTGTTGCCG (site ATCGGAGCTCC)
Second: ATCGGAGCTTGGGTTCTAACCTGTTGCCG (site ATCGGAGCTCG)
The “recombinant barcode read abundance (log10)” value of the first is lower: 0.0715 for the first, 0.497 for the second.

Going from “ATCGGAGCTTGGGTTCTAACCTGTTGCCG (site ATCGGAGCTCT)” to “ATCGGTCCTTGGGTTCTAACCTGTTGCCT (site ATAGGTCCTAG)”, the “recombinant barcode read abundance (log10)” value rises from 0.123 to 0.476.

Compared with “ATCGGTCCTTGGGTTCTAACCTGTTGCCT (site ATCGGTCCTAG)”, “ATCGGTCCTTGGGTTCTAACCTGTTGCCT (site ATGGGTCCTAG)” is lower in “recombinant barcode read abundance (log10)” value: 1.29 for the first, 0.0682 for the second.

“ATCGGTCCTTGGGTTCTAACCTGTTGCCT (site ATTGGTCCTAG)” and “ATCGTACCTTGGGTTCTAACCTGTTGCTA (site ATCGTACCTTA)” are within 0.2 log units of each other in “recombinant barcode read abundance (log10)” value: 0.174 for the first, 0.0937 for the second.

For “ATCGTACCTTGGGTTCTAACCTGTTGCTA (site CAAAAGGCTAG)”, the “recombinant barcode read abundance (log10)” value was 0.973.
